The values that follow are results of earlier work, collected in US10561746B2, “Gel formulations for guiding radiotherapy” (DANMARKS TEKNISKE UNIVERSITET, priority 2013, dated 2020).

As for H-(FEFEFKFK)2-OH [FEK16], the “concentration at which self-assembled hydrogels form” value (in the presence of mM concentrations of NaCl, KCl, and CaCl2) was > 10000 µg/mL. The “solubility in pure H2O” value (pure H2O) is listed as “highly soluble”.
